Laboratory results taken from US10500139B2, “Formulations and materials with cationic polymers” (UCL BUSINESS LTD, priority 2013, dated 2019).

Experiment: CHX and PLS release into storage solution
Type: physicochemical
Settings: in water over a period of 6 weeks
Protocol: CHX and PLS release into sample storage solutions were quantified using UV spectrometry (Mehdawi 2009, Zhao 2011) and HPLC respectively.
Reactive filler composites containing PLS were prepared as 1 mm thick composite discs. The fluid phase contained 70% UDMA, 25% TEG-DMA, 5% HEMA, 300 ppm BHT, DMPT 0.5%, BP 0.5%. 25 wt % of this fluid phase was combined with 75 wt % powder filler. The filler contained polylysine (1 or 10 wt %), chlorhexidine (0 or 10 wt %), MCPM/TCP (CaP=10 or 20 wt %) and the remainder glass particles (Sci Pharm).

## ε-poly-L-lysine [PLS]
  percentage released from 1 mm thick composite discs: over 70%
